In ChEMBL document CHEMBL2448809, “UCSF DeRisi Lab MMV Box Apicoplast Screening”:

System: Plasmodium falciparum
Test: MMV: Compounds (1uM) were screened in a 72hr growth assay monitored by flow cytometry both in the presence and absence of supplemental isopentenyl pyrophosphate (IPP) 200uM. Compounds which fail to show anti-malarial activity when chemically rescued by IPP are therefore specific to the apicoplast. The values are expressed as the ratio of the corresponding activity with and without IPP, respectively.
Format: functional, W2

SMILES	Ratio
Br.CCn1c2c(c(=N)c3c1CCC3)CCCC2	0.8374
COc1ccccc1NC1=C(N2CCCCC2)C(=O)c2ccccc2C1=O	0.9344
O=C(Nc1ccc(-c2nc3cc4ccccc4cc3[nH]2)cc1)c1cccc(Br)c1	1.254
O=C(NC1CCCC1)c1ccc(N2CCC(NCc3cccc(C(F)(F)F)c3)CC2)cc1	0.8
Cc1ccc(C2CC(C(F)(F)F)n3nc(C(=O)N4CCN(C(c5ccccc5)c5ccccc5)CC4)cc3N2)cc1 (stereo not drawn)	0.725
O=c1nc(C=Cc2ccc(Cl)cc2)oc2ccccc12	0.9697
Fc1ccc2[nH]c3c(NCCCN4CCOCC4)ncnc3c2c1	0.8594
CN1CCN(c2nc(Nc3ccc(O)cc3)nc3ccccc23)CC1.Cl	0.8636
CCOc1cc(Cl)c(C(C)NC(=O)c2ccccc2)cc1OCC (stereo not drawn)	0.9848
COc1ccc2nc(C)cc(Nc3ccc(Cl)cc3)c2c1	0.8189
CN(N=O)C1=C(NC2CCCCC2)C(=O)c2ccccc2C1=O	1.071
COc1ccc(-c2nonc2NC(=O)c2cccc(Cl)c2)cc1OC	0.9
Nc1ccc(-c2nc3cc(Cc4ccc5[nH]c(-c6ccc(N)cc6)nc5c4)ccc3[nH]2)cc1	1.333
CCCCCCC(O)(c1ccc(F)cc1)C(CN1CCOCC1)c1ccccc1.Cl (stereo not drawn)	0.9077
CCOC(=O)C1=C(C)N=c2sc(=Cc3cc(Cl)ccc3O)c(=O)n2C1c1ccc(OC)cc1 (stereo not drawn)	1.255
CCOc1ccccc1CNC(=O)C1c2ccccc2C(=O)N(CC(C)C)C1c1cccs1 (stereo not drawn)	1.143
CCn1c(CN2CCN(Cc3ccccc3)CC2)nc2cc(NC(=O)c3cccs3)ccc21	0.8481
Cc1nc2ccccc2c(O)c1CC=C(Cl)Cl	1.066
COc1ccc(C2=C(c3ccc(OC)cc3)C3(c4ccccc4)C(=O)C2(c2ccccc2)C2C(=O)N(c4ccc(C)cc4)C(=O)C23)cc1 (stereo not drawn)	1.0625
Cc1ccc(N2C(=O)C3C(C2=O)C2(c4ccccc4)C(=O)C3(c3ccccc3)C(c3ccccc3)=C2c2ccccc2)cc1 (stereo not drawn)	1.121
CCOc1ccc(-c2nc(NC(=O)c3cccc(S(C)(=O)=O)c3)sc2C)cc1	0.4367
OCCNc1nc(Nc2ccc(Cl)c(Cl)c2)nc2ccccc12	1.062
CCN(CC)c1ccc(NC(=O)c2cccs2)cc1	1
CC(C)c1ccc(CNCC(O)c2ccccc2)cc1.Cl (stereo not drawn)	0.9296
CCCCNCC(O)(c1ccc(Cl)cc1)c1ccc(Cl)cc1	1.074
CCOc1cc(Cl)c(C(C)NC(=O)c2cccc(OC)c2)cc1OCC (stereo not drawn)	0.9259

SMILES	Ratio
CCOC(=O)C1=C(C)N=c2sc(=Cc3ccccc3O)c(=O)n2C1c1ccc(OC)c2ccccc12 (stereo not drawn)	1.667
Cc1cc(C=C2SC(=Nc3ccccc3)N(C3CCCC3)C2=O)c(C)n1-c1ccc(Cl)cc1	1.038
Cc1ccc(CSCc2ccc(C(=O)NC3CC3)o2)cc1	0.8621
O=C(Nc1ccc(-c2nc3cc(NC(=O)c4ccc(Cl)cc4)ccc3[nH]2)cc1)c1ccc(Cl)cc1	0.9036
CC(C)(C)C(=O)Nc1ccc(C(=O)Nc2cccc(-c3nc4ccccc4[nH]3)c2)cc1	0.7684
Oc1ccc(Br)cc1CN1CCN(Cc2ccc(Cl)cc2)CC1	0.9138
c1ccc(CNc2nc(Nc3ccccc3)nc3ccccc23)cc1	1
CCCCCC(=O)N1c2ccccc2N=C2CC(c3ccc(OC)c(OC)c3)CC(O)=C2C1c1ccc(C(F)(F)F)cc1 (stereo not drawn)	0.7792
O=C(Nc1ccc(Cl)c(Cl)c1)Nc1ccc(Cl)c(Cl)c1	1.022
C=CC12CCN(CC1)C(C(O)c1ccnc3ccc(OC)cc13)C2.Cl (stereo not drawn)	0.6933
O=C(NC1CCN(Cc2ccccc2)CC1)c1cc(-c2ccncc2)nc2ccc(Cl)cc12	0.7749
Cl.Oc1ccccc1CNCC12CC3CC(CC(C3)C1)C2	0.8
O=C1c2ccccc2-c2nnc(-c3ccc(Br)cc3)cc21	0.8889
COc1ccc(C2Sc3ccccc3N=C3C2=C(O)c2ccccc23)cc1 (stereo not drawn)	1.228
CCN(CC)c1cc(C)c2cc(NC(=O)c3cccc(OC)c3)ccc2n1	1.095
Cc1sc(NC(=O)c2ccco2)c(C(c2cccnc2)N2CCC(Cc3ccccc3)CC2)c1C (stereo not drawn)	1.123
O=C(c1ccccc1F)N(Cc1ccc(Cl)cc1)c1ccccn1	0.7857
CCC(O)c1ccc(Br)cc1NC(=O)c1cccc(Cl)c1 (stereo not drawn)	1
Cc1cccc(-n2ncc3c(O)nc(-n4nc(C)cc4NC(=O)c4cc5ccccc5o4)nc32)c1	0.6055
O=C(O)C1Cc2c([nH]c3ccccc23)C(c2ccc(Cl)cc2Cl)N1 (stereo not drawn)	6.316
COc1ccc(-c2cc3c(nn2)-c2ccccc2C3=O)cc1	1.105
O=C(CSc1ccc2nnc(-c3cccc(F)c3)n2n1)Nc1ccc2c(c1)OCO2	0.7344
CNCCCNc1ccnc2cc(Cl)ccc12	0.8333
CCOC(=O)c1cn(CC)c2cc(N(C)CCc3ccc(OC)c(OC)c3)c(F)cc2c1=O	0.75
Oc1ccc(C(=C(Cl)Cl)c2ccc(O)cc2)cc1	1.113
Cc1ccnc(NC(c2cccc(OCc3ccccc3)c2)c2ccc3cccnc3c2O)c1 (stereo not drawn)	1.558

SMILES	Ratio
COc1cc(OC)c(N(C)C(=O)c2cc3c(s2)-c2ccccc2S(=O)(=O)C3)cc1Cl	1
CSC1=NC(=Nc2c(C)cccc2C)C2(CCC(C(C)(C)C)CC2)N1c1ccc(Cl)cc1 (stereo not drawn)	0.8243
CC(=O)c1sc(NC(=O)Nc2ccc(C)cc2C)nc1C	0.843
Oc1ccc(Cl)cc1CNc1nc2ccccc2[nH]1	1.068
CCOC(=O)C1=C(c2ccccc2)N=c2sc(=Cc3cc(C)n(-c4ccc(F)cc4)c3C)c(=O)n2C1c1cccc(OC)c1OC (stereo not drawn)	0.7267
CC(C)(C)c1ccc(C(=O)Nc2c3c(nn2-c2cccc(Cl)c2)CSC3)cc1	0.9138
COc1ccccc1N1C(=N)SC(=Cc2ccc(OCc3ccccc3F)cc2)C1=O	1.033
COc1cccc(C2(C)Nc3ccccc3-c3nc4ccccc4n32)c1 (stereo not drawn)	1.163
COc1ccc(Nc2nc(NCc3ccccc3)c3ccccc3n2)cc1	1.093
COc1cc(OC)cc(N2C(=O)N(Cc3ccc(C(C)(C)C)cc3)c3ccccc3S2(=O)=O)c1	0.9143
Cc1ccc(Nc2nc(NCCO)c3ccccc3n2)cc1C	0.8028
CN1c2ccccc2N(C)C1c1ccc2c(c1)OCO2	0.7561
Cc1c(C)n(Cc2ccc(F)cc2)c2ccc(C(=O)NCc3ccco3)cc12	1.212
COc1ccc(C)c2sc(N(Cc3cccnc3)C(=O)c3ccc(C#N)cc3)nc12	0.971
O=C(Nc1ccccc1O)c1ccc(-c2ccc(Cl)cc2Cl)o1	0.8413
Cc1ccc(-c2cc(C(=O)Nc3ccc(S(=O)(=O)N4CCCCC4)cc3)[nH]n2)c(O)c1	0.875
N=c1c2ccccc2nnn1-c1cccc(C(F)(F)F)c1	1.0625
CC1CC(C)CN(C(=O)c2ccc(Cl)cc2Cl)C1 (stereo not drawn)	0.6364
CC(Oc1ccc(NC(=O)c2cccs2)cc1)C(=O)c1ccc(Cl)cc1 (stereo not drawn)	1
COc1ccc(C=C2SC(Nc3ccc(F)cc3)=NC2=O)c(OC)c1	0.9324
COc1cc2c3cc1Oc1c(OC)c(OC)cc4c1C(Cc1ccc(O)c(c1)Oc1ccc(cc1)CC3N(C)CC2)N(C)CC4.Cl (stereo not drawn)	0.95
O=C1c2ccc3c4c(ccc(c24)C(=O)N1CCCCO)C(=O)N(CCCCO)C3=O	1.047
Cc1cc(=O)oc2c1ccc1oc(C(=O)c3ccccc3)c(C)c12	1.067
Cl.OC(CNCc1ccccc1)Cn1c2ccccc2c2ccccc21 (stereo not drawn)	0.9403
COc1cc2cc(C(=O)Nc3ccccc3)c(N)nc2cc1OC	1.031
Cn1c(=O)c2cc(C(=O)NCCCN3CCCCCC3)sc2c2ccccc21	1.205

SMILES	Ratio
CCOc1cc(CNC(C)C(O)c2ccccc2)cc(Cl)c1OCC (stereo not drawn)	0.8833
Oc1c(CN2CCN(c3ccccc3F)CC2)cc(Br)c2cccnc12	0.8919
CCN(CC)CCNc1ncnc2c1[nH]c1ccc(Cl)cc12	0.6923
COc1ccc(CCNC(=O)c2cc(S(=O)(=O)N3CC(C)CC(C)C3)ccc2Sc2ccc(F)cc2)cc1OC (stereo not drawn)	1.061
Cc1ccc(-c2cc3c(nn2)-c2ccccc2C3=O)cc1	0.7253
CCOc1cc2c(cc1OCC)C(c1cc(C)c(O)c(C)c1)NCC2.Cl (stereo not drawn)	1.148
O=C(Nc1ccc(Br)cc1)Nc1cccc(Cl)c1	1.104
Oc1ccc(-c2nc(-c3ccc4oc5ccc(-c6[nH]c(-c7ccc(O)cc7)nc6-c6ccccc6)cc5c4c3)c(-c3ccccc3)[nH]2)cc1	0.8182
Cc1sc(NC(=O)c2ccccc2)c(C(c2cccs2)N2CCN(c3ccccc3)CC2)c1C (stereo not drawn)	0.9412
CCN1CCCC1CNc1[nH]cnc2c3cc(Cl)ccc3nc1-2 (stereo not drawn)	0.925
O=C(NC1CCCCC1)C(c1cccs1)N(CCc1ccccc1)C(=O)c1ccco1 (stereo not drawn)	0.9135
COc1cccc(Cn2c(Oc3ccccc3)nc3c2c(=O)n(C)c(=O)n3C)c1	0.9255
CCOc1ccc(C2N(C)c3ccccc3N2C)cc1	0.8372
CC1CN(C(=O)c2sc3ccccc3c2Cl)CC(C)O1 (stereo not drawn)	0.8415
O=C(Nc1ccc(Cl)cc1C(=O)Nc1ccncc1)c1ccc(Cl)cc1Cl	0.7485
O=C(Cc1ccccc1)NC(c1ccc(Cl)cc1)c1c(O)ccc2ccccc12 (stereo not drawn)	0.873
Cl.c1ccc2c(NCCCCCCNc3c4c(nc5ccccc35)CCCC4)c3c(nc2c1)CCCC3	1.108
CN1CCN(c2ccc(Nc3c4ccccc4nc4ccccc34)cc2)CC1	0.8
OC1CCCCC1C1(NC(=S)Nc2ccccc2)CCCCC1 (stereo not drawn)	0.9298
COc1ccc(C(O)(CCC(C)C)C(CN2CCOCC2)c2ccc(Cl)cc2)cc1.Cl (stereo not drawn)	1.06
CN(C)c1ccc(C(O)(c2ccc(N(C)C)cc2)c2ccc(N(C)C)cc2)cc1 [METHYLROSANILINE]	1.127
O=C(NC1CCN(Cc2ccccc2)CC1)c1cc2nc(-c3ccc(Cl)s3)cc(C(F)(F)F)n2n1	0.6993
COc1ccc(C2C(C(=O)Nc3cccc(OC)c3)c3ccccc3C(=O)N2C2CCCCC2)cc1 (stereo not drawn)	0.7969
COc1ccc(N2CCN(C(CNC(=O)C3CCCCC3)c3ccc4c(c3)OCO4)CC2)cc1 (stereo not drawn)	0.9206
CCOc1ccc(Nc2c3ccccc3nc3ccccc23)cc1.Cl	1
